{
  "source": "paper PMC5218480",
  "about": "(PLoS ONE, 2017)",
  "tested_on": "MV-4-11 cells",
  "assay": "Gene expression microarray analysis (Affymetrix PrimeView) and GSEA",
  "format": "cell-based, human",
  "parameters": "RFU PODN (11730768_x_at) / Fold change /veh PODN (11730768_x_at) / RFU LINC00158 (11744669_a_at) / Fold change /veh LINC00158 (11744669_a_at) / RFU DUSP10 (11751237_a_at) / Fold change /veh DUSP10 (11751237_a_at) / RFU ID3 (11757404_x_at) / Fold change /veh ID3 (11757404_x_at) / RFU PLEKHG5 (11737974_s_at) / Fold change /veh PLEKHG5 (11737974_s_at) / RFU LRRC4B (11730491_at) / Fold change /veh LRRC4B (11730491_at) / RFU GIMAP4 (11747438_a_at) / Fold change /veh GIMAP4 (11747438_a_at) / RFU KRT8 (11758183_x_at) / Fold change /veh KRT8 (11758183_x_at) / RFU CNN1 (11734310_a_at) / Fold change /veh CNN1 (11734310_a_at) / RFU VPS37D (11726825_at) / Fold change /veh VPS37D (11726825_at) / RFU C10orf10 (11716522_x_at) / Fold change /veh C10orf10 (11716522_x_at) / RFU KIR2DL2 /// KIR2DL4 /// KIR2DL5A /// KIR2DL5B /// KIR2DS1 /// KIR2DS2 /// KIR2DS3 /// KIR2DS4 /// KIR3DL3 /// KIR3DL3 /// KIR3DS1 (11738374_at) / Fold change /veh KIR2DL2 /// KIR2DL4 /// KIR2DL5A /// KIR2DL5B /// KIR2DS1 /// KIR2DS2 /// KIR2DS3 /// KIR2DS4 /// KIR3DL3 /// KIR3DL3 /// KIR3DS1 (11738374_at) / RFU C1QL1 (11718748_at) / Fold change /veh C1QL1 (11718748_at) / RFU TMPRSS4 (11747572_a_at) / Fold change /veh TMPRSS4 (11747572_a_at) / RFU HAMP (11756126_x_at) / Fold change /veh HAMP (11756126_x_at) / RFU RNFT2 (11725882_a_at) / Fold change /veh RNFT2 (11725882_a_at) / RFU NR4A2 (11747474_a_at) / Fold change /veh NR4A2 (11747474_a_at) / RFU ABCC12 (11746883_a_at) / Fold change /veh ABCC12 (11746883_a_at) / RFU TMEM136 (11760407_x_at) / Fold change /veh TMEM136 (11760407_x_at) / RFU CLDN22 /// WWC2 (11732394_at) / Fold change /veh CLDN22 /// WWC2 (11732394_at) / RFU HLA-DPB1 (11760878_x_at) / Fold change /veh HLA-DPB1 (11760878_x_at) / RFU SPINT1 (11716480_a_at) / Fold change /veh SPINT1 (11716480_a_at) / RFU GAP43 (11754022_s_at) / Fold change /veh GAP43 (11754022_s_at) / RFU A4GNT (11735810_at) / Fold change /veh A4GNT (11735810_at) / RFU PRB3 (11715151_x_at) / Fold change /veh PRB3 (11715151_x_at) / RFU TUBB4B (11761932_at) / Fold change /veh TUBB4B (11761932_at) / RFU CAPN14 (11732068_a_at) / Fold change /veh CAPN14 (11732068_a_at) / RFU TMCC2 (11721928_a_at) / Fold change /veh TMCC2 (11721928_a_at) / RFU IRGQ (11745062_a_at) / Fold change /veh IRGQ (11745062_a_at) / RFU FAM174B (11720279_a_at) / Fold change /veh FAM174B (11720279_a_at) / RFU TMPRSS4 (11748680_a_at) / Fold change /veh TMPRSS4 (11748680_a_at) / RFU FAM212B (11763350_a_at) / Fold change /veh FAM212B (11763350_a_at) / RFU PLEKHG5 (11743358_a_at) / Fold change /veh PLEKHG5 (11743358_a_at) / RFU ZSCAN30 (11745921_a_at) / Fold change /veh ZSCAN30 (11745921_a_at) / RFU CMKLR1 (11741424_a_at) / Fold change /veh CMKLR1 (11741424_a_at) / RFU LOC101060620 /// MAPK8IP1 (11723275_at) / Fold change /veh LOC101060620 /// MAPK8IP1 (11723275_at) / RFU SPTSSB (11747773_x_at) / Fold change /veh SPTSSB (11747773_x_at) / RFU PRSS12 (11739890_at) / Fold change /veh PRSS12 (11739890_at) / RFU BIN1 (11741810_x_at) / Fold change /veh BIN1 (11741810_x_at) / RFU WNT11 (11732464_a_at) / Fold change /veh WNT11 (11732464_a_at) / RFU C10orf10 (11716521_a_at) / Fold change /veh C10orf10 (11716521_a_at) / RFU C5orf56 (11738089_at) / Fold change /veh C5orf56 (11738089_at) / RFU CYB561 (11721691_x_at) / Fold change /veh CYB561 (11721691_x_at) / RFU ANKRD19P (11752326_a_at) / Fold change /veh ANKRD19P (11752326_a_at) / RFU OR2T12 /// OR2T33 /// OR2T8 (11738714_s_at) / Fold change /veh OR2T12 /// OR2T33 /// OR2T8 (11738714_s_at) / RFU VCAN (11748164_a_at) / Fold change /veh VCAN (11748164_a_at) / RFU JSRP1 (11732532_at) / Fold change /veh JSRP1 (11732532_at) / RFU KRTAP10-11 (11738290_x_at) / Fold change /veh KRTAP10-11 (11738290_x_at) / RFU MYO3A (11730013_a_at) / Fold change /veh MYO3A (11730013_a_at) / RFU EBF3 (11725865_a_at) / Fold change /veh EBF3 (11725865_a_at) / RFU CAMK2N1 (11719241_x_at) / Fold change /veh CAMK2N1 (11719241_x_at) / RFU C5orf56 (11738088_a_at) / Fold change /veh C5orf56 (11738088_a_at) / RFU OLFML3 (11715873_a_at) / Fold change /veh OLFML3 (11715873_a_at) / RFU LOC100653217 /// NTM (11731650_a_at) / Fold change /veh LOC100653217 /// NTM (11731650_a_at) / RFU MAPK11 (11762145_a_at) / Fold change /veh MAPK11 (11762145_a_at) / RFU FIZ1 (11724087_x_at) / Fold change /veh FIZ1 (11724087_x_at) / RFU OASL (11726364_x_at) / Fold change /veh OASL (11726364_x_at) / RFU SOX15 (11748057_x_at) / Fold change /veh SOX15 (11748057_x_at) / RFU CD79A (11719716_a_at) / Fold change /veh CD79A (11719716_a_at) / RFU HIST1H1D (11736915_at) / Fold change /veh HIST1H1D (11736915_at) / RFU CASKIN2 (11723855_a_at) / Fold change /veh CASKIN2 (11723855_a_at) / RFU LOC730098 (11760151_x_at) / Fold change /veh LOC730098 (11760151_x_at) / RFU OR4N2 (11742367_at) / Fold change /veh OR4N2 (11742367_at) / RFU PRRT2 (11749266_a_at) / Fold change /veh PRRT2 (11749266_a_at) / RFU SNX32 (11753110_a_at) / Fold change /veh SNX32 (11753110_a_at) / RFU CDHR5 (11726645_a_at) / Fold change /veh CDHR5 (11726645_a_at) / RFU RCAN1 (11760418_a_at) / Fold change /veh RCAN1 (11760418_a_at) / RFU FAM167A (11723789_a_at) / Fold change /veh FAM167A (11723789_a_at) / RFU FAM26E (11764081_at) / Fold change /veh FAM26E (11764081_at) / RFU ISYNA1 (11749810_s_at) / Fold change /veh ISYNA1 (11749810_s_at) / RFU ACY1 (11761880_at) / Fold change /veh ACY1 (11761880_at) / RFU 11764098_at / Fold change /veh 11764098_at / RFU SAMD14 (11745864_x_at) / Fold change /veh SAMD14 (11745864_x_at) / RFU NPB (11741838_a_at) / Fold change /veh NPB (11741838_a_at) / RFU TMPRSS6 (11731388_a_at) / Fold change /veh TMPRSS6 (11731388_a_at) / RFU KRTAP10-2 (11738614_at) / Fold change /veh KRTAP10-2 (11738614_at) / RFU ARHGAP8 /// PRR5-ARHGAP8 (11727945_x_at) / Fold change /veh ARHGAP8 /// PRR5-ARHGAP8 (11727945_x_at) / RFU KRTAP5-7 /// NADSYN1 (11734609_at) / Fold change /veh KRTAP5-7 /// NADSYN1 (11734609_at) / RFU RASL12 (11751679_a_at) / Fold change /veh RASL12 (11751679_a_at) / RFU CDKN2B (11736163_a_at) / Fold change /veh CDKN2B (11736163_a_at) / RFU PRF1 (11729649_at) / Fold change /veh PRF1 (11729649_at) / RFU, ZNF638 /// ZNF638-IT1 / Fold change vs veh, ZNF638 /// ZNF638-IT1 / RFU, PANK3 / Fold change vs veh, PANK3 / RFU, SH3YL1 / Fold change vs veh, SH3YL1 / RFU, ZEB2 / Fold change vs veh, ZEB2 / RFU, NRIP1 / Fold change vs veh, NRIP1 / RFU, PTTG1IP / Fold change vs veh, PTTG1IP / RFU, CAPN2 / Fold change vs veh, CAPN2 / RFU, MED14 / Fold change vs veh, MED14 / RFU, SNORA58 / Fold change vs veh, SNORA58 / RFU, C1orf63 / Fold change vs veh, C1orf63 / RFU, LRRFIP1 / Fold change vs veh, LRRFIP1 / RFU, NDUFAF7 / Fold change vs veh, NDUFAF7 / RFU, SLC12A2 / Fold change vs veh, SLC12A2 / RFU, IBTK / Fold change vs veh, IBTK / RFU, ESF1 / Fold change vs veh, ESF1 / Fold change vs veh, TMEM50B / RFU, TAOK1 / Fold change vs veh, TAOK1 / RFU, ACBD3 / Fold change vs veh, ACBD3 / RFU, TMA16 / Fold change vs veh, TMA16 / RFU, RWDD3 / Fold change vs veh, RWDD3 / RFU, BCAT1 / Fold change vs veh, BCAT1 / RFU, EDEM3 / Fold change vs veh, EDEM3 / RFU, TMEM33 / Fold change vs veh, TMEM33 / RFU, WDR75 / Fold change vs veh, WDR75 / RFU, AHCTF1 / Fold change vs veh, AHCTF1 / RFU, TFRC / Fold change vs veh, TFRC / RFU, ZDHHC17 / Fold change vs veh, ZDHHC17 / RFU, NOM1 / Fold change vs veh, NOM1 / RFU, ARL8B / Fold change vs veh, ARL8B / RFU, ZBTB11 / Fold change vs veh, ZBTB11 / RFU, TAMM41 / Fold change vs veh, TAMM41 / RFU, KIAA1704 /// LOC100996395 / Fold change vs veh, KIAA1704 /// LOC100996395 / RFU, ING1 / Fold change vs veh, ING1 / RFU, TRMT61B / Fold change vs veh, TRMT61B / RFU, FUBP3 / Fold change vs veh, FUBP3 / RFU, TP53 / Fold change vs veh, TP53 / RFU, TNKS2 / Fold change vs veh, TNKS2 / RFU, ZFP14 / Fold change vs veh, ZFP14 / RFU, ACTR2 / Fold change vs veh, ACTR2 / RFU, PPP3R1 / Fold change vs veh, PPP3R1 / RFU, PIK3R1 / Fold change vs veh, PIK3R1 / RFU, HNRNPA1 / Fold change vs veh, HNRNPA1 / RFU, RNF170 / Fold change vs veh, RNF170 / RFU, ZNF28 / Fold change vs veh, ZNF28 / RFU, RNGTT / Fold change vs veh, RNGTT / RFU, OGT / Fold change vs veh, OGT / RFU, BRD1 / Fold change vs veh, BRD1 / RFU, MARS / Fold change vs veh, MARS / RFU, ZNF655 / Fold change vs veh, ZNF655 / RFU, FAHD1 / Fold change vs veh, FAHD1 / RFU, BDP1 / Fold change vs veh, BDP1 / RFU, LRRCC1 / Fold change vs veh, LRRCC1 / RFU, ARID1A / Fold change vs veh, ARID1A / RFU, ZNF146 / Fold change vs veh, ZNF146 / RFU, ZNF330 / Fold change vs veh, ZNF330 / RFU, GPN3 / Fold change vs veh, GPN3 / RFU, C9orf123 / Fold change vs veh, C9orf123 / RFU, N4BP2L2 / Fold change vs veh, N4BP2L2 / RFU, ARFIP1 / Fold change vs veh, ARFIP1 / RFU, FAM179B / Fold change vs veh, FAM179B / RFU, BCL10 / Fold change vs veh, BCL10 / RFU, UHRF1BP1L / Fold change vs veh, UHRF1BP1L / RFU, BET1 / Fold change vs veh, BET1 / RFU, CNOT2 / Fold change vs veh, CNOT2 / RFU, ZNF268 / Fold change vs veh, ZNF268 / Fold change vs veh, ZNF507 / RFU, DGCR2 / Fold change vs veh, DGCR2 / RFU, WDSUB1 / Fold change vs veh, WDSUB1 / Fold change vs veh, HSP90B1 /// MIR3652 / RFU, ADSS / Fold change vs veh, ADSS / RFU, GK / Fold change vs veh, GK / RFU, ZNF148 / Fold change vs veh, ZNF148 / RFU, TAF9 / Fold change vs veh, TAF9 / RFU, SLC1A5 / Fold change vs veh, SLC1A5 / RFU, SLMO2 / Fold change vs veh, SLMO2 / RFU, ABCC4 / Fold change vs veh, ABCC4 / RFU, LOC101060439 /// RAP1B / Fold change vs veh, LOC101060439 /// RAP1B / RFU, RFX7 / Fold change vs veh, RFX7 / RFU, GTPBP10 / Fold change vs veh, GTPBP10 / RFU, CNEP1R1 / Fold change vs veh, CNEP1R1 / RFU, BIVM-ERCC5 /// ERCC5 / Fold change vs veh, BIVM-ERCC5 /// ERCC5 / RFU, ILF3 / Fold change vs veh, ILF3 / RFU 11762660_at / Fold change /veh 11762660_at / RFU VCAN (11757783_s_at) / Fold change /veh VCAN (11757783_s_at) / RFU DDX43 (11728927_at) / Fold change /veh DDX43 (11728927_at) / RFU KRT8 (11758188_x_at) / Fold change /veh KRT8 (11758188_x_at) / RFU NKD1 (11759106_at) / Fold change /veh NKD1 (11759106_at) / RFU SRD5A1 (11742802_a_at) / Fold change /veh SRD5A1 (11742802_a_at) / RFU TPSAB1 /// TPSB2 (11721975_s_at) / Fold change /veh TPSAB1 /// TPSB2 (11721975_s_at) / RFU GSTM3 (11746129_a_at) / Fold change /veh GSTM3 (11746129_a_at) / RFU IL23R (11737362_x_at) / Fold change /veh IL23R (11737362_x_at) / RFU TMEM51 (11727254_a_at) / Fold change /veh TMEM51 (11727254_a_at) / RFU PIWIL2 (11732686_x_at) / Fold change /veh PIWIL2 (11732686_x_at) / RFU ORM1 (11744905_x_at) / Fold change /veh ORM1 (11744905_x_at) / RFU CCDC152 (11743942_at) / Fold change /veh CCDC152 (11743942_at) / RFU ECM1 (11717891_a_at) / Fold change /veh ECM1 (11717891_a_at) / RFU IL23R (11748794_a_at) / Fold change /veh IL23R (11748794_a_at) / RFU TNFAIP8L3 (11732012_x_at) / Fold change /veh TNFAIP8L3 (11732012_x_at) / RFU MBOAT4 (11741988_at) / Fold change /veh MBOAT4 (11741988_at) / RFU 11764193_at / Fold change /veh 11764193_at / RFU TMEM53 (11763286_at) / Fold change /veh TMEM53 (11763286_at) / RFU MAGEB2 (11727129_at) / Fold change /veh MAGEB2 (11727129_at) / RFU TMEM200A (11744735_a_at) / Fold change /veh TMEM200A (11744735_a_at) / RFU CCDC152 (11751479_a_at) / Fold change /veh CCDC152 (11751479_a_at) / RFU FAM211A (11726209_a_at) / Fold change /veh FAM211A (11726209_a_at) / RFU RGS16 (11746705_a_at) / Fold change /veh RGS16 (11746705_a_at) / RFU VCAN (11755009_s_at) / Fold change /veh VCAN (11755009_s_at) / RFU RHOB (11743442_s_at) / Fold change /veh RHOB (11743442_s_at) / RFU RGS16 (11720943_a_at) / Fold change /veh RGS16 (11720943_a_at) / RFU RGS16 (11720944_at) / Fold change /veh RGS16 (11720944_at) / RFU, VPS4B / Fold change vs veh, VPS4B / RFU, CREB1 / Fold change vs veh, CREB1 / RFU, DNAJC13 / Fold change vs veh, DNAJC13 / RFU, GNAQ / Fold change vs veh, GNAQ / RFU, CDK5R1 / Fold change vs veh, CDK5R1 / RFU, ZRANB3 / Fold change vs veh, ZRANB3 / RFU, CUL4A / Fold change vs veh, CUL4A / RFU, CCNY / Fold change vs veh, CCNY / RFU, UFL1 / Fold change vs veh, UFL1 / RFU, COG3 / Fold change vs veh, COG3 / RFU, DIAPH2 / Fold change vs veh, DIAPH2 / RFU, SKA2 / Fold change vs veh, SKA2 / RFU, AFF3 / Fold change vs veh, AFF3 / RFU, LMF1 / Fold change vs veh, LMF1 / RFU, IPO11 / Fold change vs veh, IPO11 / RFU, DFFB / Fold change vs veh, DFFB / RFU, FOXP1 / Fold change vs veh, FOXP1 / RFU, CARD8 / Fold change vs veh, CARD8 / RFU, STRN3 / Fold change vs veh, STRN3 / RFU, ADK / Fold change vs veh, ADK / RFU, RASSF2 / Fold change vs veh, RASSF2 / RFU, WIPF1 / Fold change vs veh, WIPF1 / RFU, LARP1B / Fold change vs veh, LARP1B / RFU, RASA1 / Fold change vs veh, RASA1 / RFU, RB1 / Fold change vs veh, RB1 / RFU, PPFIA1 / Fold change vs veh, PPFIA1 / RFU, MAT2A / Fold change vs veh, MAT2A / RFU, CCT5 / Fold change vs veh, CCT5 / RFU, WDR92 / Fold change vs veh, WDR92 / RFU, CUX1 / Fold change vs veh, CUX1 / RFU, TTC7A / Fold change vs veh, TTC7A / RFU, TMEM135 / Fold change vs veh, TMEM135 / RFU, DEPTOR / Fold change vs veh, DEPTOR / RFU, CPM / Fold change vs veh, CPM / RFU, DNAJB6 / Fold change vs veh, DNAJB6 / RFU, CACNA2D3 / Fold change vs veh, CACNA2D3 / RFU, DTX4 / Fold change vs veh, DTX4 / RFU, TFCP2 / Fold change vs veh, TFCP2 / RFU, GMCL1 /// GMCL1P1 / Fold change vs veh, GMCL1 /// GMCL1P1 / RFU, AEBP2 / Fold change vs veh, AEBP2 / RFU, SNHG1 /// SNORD22 /// SNORD25 /// SNORD26 /// SNORD27 /// SNORD28 /// SNORD29 /// SNORD31 / Fold change vs veh, SNHG1 /// SNORD22 /// SNORD25 /// SNORD26 /// SNORD27 /// SNORD28 /// SNORD29 /// SNORD31 / Fold change (Aza/veh), C12orf56 (ProbeSet 11735607_a_at) / Fold change (ACY-1035/veh), C12orf56 (ProbeSet 11735607_a_at) / Fold change (Aza/veh), FGFR1OP (ProbeSet 11751329_s_at) / Fold change (ACY-1035/veh), FGFR1OP (ProbeSet 11751329_s_at) / Fold change (Aza/veh), VPS36 (ProbeSet 11739960_a_at) / Fold change (ACY-1035/veh), VPS36 (ProbeSet 11739960_a_at) / RFU SYPL1 (11715823_x_at) / Fold change /veh SYPL1 (11715823_x_at) / RFU IGFBP7 (11715501_s_at) / Fold change /veh IGFBP7 (11715501_s_at) / RFU REEP3 (11722064_at) / Fold change /veh REEP3 (11722064_at) / RFU IGLL1 (11728026_x_at) / Fold change /veh IGLL1 (11728026_x_at): dose or concentration left out as unconfirmed",
  "details": "ProbeSet 11758170_s_at; LIST D",
  "data": [
    {"smiles": "Nc1ncn([C@@H]2O[C@H](CO)[C@@H](O)[C@H]2O)c(=O)n1", "note": "[azacitidine]", "values": [
      {"measurement": "RFU, DIAPH2", "result": 23.40, "unit": "RFU"}
    ]}
  ]
}
